Test results taken from US9232785B2, “Method for reducing sunburn damage in plants” (BASF SE, priority 2009, dated 2016).

How the values were obtained:
[1] = system: sunburn injury on barley cultivar Finita; assay: Preventive action on winter barley against sunburn injury, field trial, two timings (Example 5); format: in vivo; conditions: applied at BBCH 53, Actives A & B 0.8 l/ha, UV Filter 2.0 l/ha, Surround 10 kg/ha, % destroyed leaf area
Procedure: The biological trial was conducted under field conditions in Germany. The barley cultivar […] was planted and grown under standard conditions with adequate supply of water and nutrients. At BBCH 53 0.8 l/ha of Actives A & B and 2.0 l/ha UV Filter A or B were applied. For comparison, the Surround® (commercially available from Engelhard Corp., wettable powder comprising 95 wt % kaolin) was applied at a rate of 10 kg/ha. The level of sunburn injury was evaluated 15 and 22 days after application (% estimation of destroyed leaf area).

[2] = system: sunburn injury on winter barley; assay: Preventive action on winter barley against sunburn injury, field trial (Example 3); format: in vivo; conditions: Germany, applied at BBCH 53, evaluated 22 days after application, 0 = as untreated control, 100 = no sunburn symptoms, UV filter 2 L/ha (500 g ai/ha), Actives A & B 0.8 & 0.8 L/ha (240 & 297 g ai/ha)
Procedure: As active substance a mixture of active substances was used called “Actives A & B”, which was prepared by mixing Active A and Active B. Active A was a fungicidal suspension concentrate comprising 6 wt % epoxiconazol, 20.8 wt % boscalid, 11.2-12.6 wt % fatty alcohol alkoxylate, C8-alkyl glucoside, and phenolsulfonic acid-formaldehyde-polycondensate sodium salt (commercially available pesticide formulation from BASF SE as Champion®). Active B a fungicidal suspoemulsion comprising 20.6 wt % fenpropimorph, 11 wt % pyraclostrobin, 4.1 wt % epoxiconazol, 20.5 wt % solvent naphtha, 11 wt % fatty alcohol ethoxylate and 4.8 wt % phenolsulfonic acid-formaldehyde-polycondensate sodium salt (commercially available pesticide formulation from BASF SE as Diamant®). UV Filter A and UV filter B were prepared as described in examples 1 and 2.
The biological trial was conducted under field conditions in Germany. […] The level of sunburn injury was evaluated 22 days after application (% estimation of destroyed leaf area).
The sunburn injury assessments were converted into efficacies. […] The expected efficacies of active compound mixtures were determined using Colby's formula [R. S. Colby, “Calculating synergistic and antagonistic responses of herbicide combinations”, Weeds 15, 20-22 (1967)] and compared with the observed efficacies.

SMILES	% sunburn injury 15 days after application [1]	% sunburn injury 22 days after application [1]	Efficacy [2]
COCCOCCOCCOCCOCCOCCOCCOC(=O)C(C#N)=C(c1ccccc1)c1ccccc1 [UV Filter A, 2-Cyano-3,3-diphenyl-acrylsäure-[Pluriol A350E]-ester]	38%	96%	4
COCCOCCOCCOCCOCCOCCOCCOC(=O)CCc1cc(-n2nc3ccccc3n2)c(O)c(C(C)(C)C)c1 [UV Filter B, 3-(3-Benzotriazol-2-yl-5-tert-butyl-4-hydroxyphenyl)-propiosäure-[Pluriol A350E]-ester]	36%	97%	3
